In article PMC8308784, “Novel Purine Chemotypes with Activity against Plasmodium falciparum and Trypanosoma cruzi” (Pharmaceuticals, 2021):
pIC50: −log10 of the molar value. Where two headings read alike, the source gives them in different places.

Key:
Assay type in all cases: cell-based
P. falciparum 3D7 = assay: P. falciparum primary screening at three fixed concentrations; conditions: average of at least three experiments
Method: Apicomplexan parasite cultures were maintained at 3% hematocrit under an atmosphere of 37 °C in 93% N2, 5% CO2, and 2% O2, following standard methods. Synchronized cultures were obtained via 5% sorbitol lysis.
[…] Conditions were tested in triplicate for every concentration, and the test was repeated when the standard deviation was above 10% for any concentration. Z-values varied between 0.83 and 0.98 in the different plates analyzed. Selected compounds (12.3% potential hit rate) were further analyzed via standard growth inhibition assays, carried out as previously described in [54]. Briefly, parasitemia was adjusted to 1–1.3%, with >90% rings after sorbitol synchronization. Two hundred microliters of parasite culture were plated in 96-well microplates and incubated for 48 h at 37 °C in the presence of decreasing concentrations of the tested compounds, in triplicate. Parasitemia was determined by fluorescence-assisted cell sorting (FACS). Non-infected RBCs and samples containing parasitized RBCs (including controls with DMSO as carrier solvent) were diluted in PBS to a final concentration of ~1–10 × 10^6 cells/mL. The cell suspension was stained with SYTO 11 (0.5 mM stock in DMSO, Thermo Fisher Scientific, Waltham, MA, USA), to a final concentration of 0.5 μM. Samples were analyzed in a Becton Dickinson FACSCalibur. Sample excitation was carried out using a 488-nm, air-cooled argon-ion laser at a power of 15 mW, using forward and side scatter to gate the RBC population, and SYTO 11 green fluorescence (530 nm, FITC filter) was collected in a logarithmic scale. The single-cell population was selected on a forward–side scattergram, and the green fluorescence from this population was analyzed. Parasitemia was expressed as the number of parasitized cells per 100 erythrocytes.
(§1) Absorbance values derived from the anti-T. cruzi assays and fluorescence values from the anti-P. falciparum and cell toxicity assays were normalized to the controls. In the primary screening at three fixed doses, the compounds’ inhibitory activity was expressed as a percentage of the negative control (100% parasitic growth). In dose–response assays, the compounds’ IC50 and TC50 values were determined with GraphPad Prism 7 software (version 7.00, 2016), using a non-linear regression analysis model defined by the following equation: Y=100 ÷(1+10^((LogIC50−X)×HillSlope))

[1] = tested on: T. cruzi Tulahuen strain expressing β-galactosidase; assay: T. cruzi primary screening at three fixed concentrations
Method: (§2) T. cruzi parasites from the Tulahuen strain (discrete typing unit (DTU) VI) expressing β-galactosidase were maintained in culture by the infection of LLC-MK2 cells in DMEM supplemented with 2% FBS and 1% penicillin–streptomycin–glutamine (PSG), as described in [52]. When free-swimming trypomastigotes were released to the culture medium, they were centrifuged for 7 min at 2500 rpm and allowed to swim out of the pellet. Trypomastigotes were used to maintain the parasite cycle, or for the performance of the antiparasitic assays.
[…] Conditions were tested in triplicate for every concentration. Z-values varied between 0.81 and 0.92 in the different plates analyzed. Selected compounds (34.6% potential hit rate) were further analyzed via standard growth inhibition assays. The Z-values of dose–response assays correlated with those previously reported. For both assays, Vero cells and trypomastigotes from the Tulahuen T. cruzi strain expressing β-galactosidase were harvested, centrifuged, and resuspended in DMEM without phenol red supplemented with 1% PSG, 2% FBS, 1 mM sodium pyruvate, and 25 mM HEPES. Vero cells and trypomastigotes were counted, diluted at a concentration of 1 × 10^6 cells/mL each, and mixed 1:1 (v/v). Then, 100 μL of that mixture was added per well to the plates already containing the compounds. Each well contained 50,000 host cells and 50,000 parasites, i.e., multiplicity of infection (MOI) = 1. BNZ was used as control of maximal drug growth inhibition in each round, whereas each plate contained its own negative control (maximum parasite growth; Vero cells plus parasites without drugs) and positive control (minimum parasite growth; trypomastigote forms alone marking an enzymatic zero time or baseline galactosidase activity). After four days at 37 °C, 50 µL of a PBS solution containing 0.25% NP40 and 500 µM chlorophenol red-β-D-galactopyranoside (CPRG) substrate were added per well [32]. Plates were incubated at 37 °C for 4 h, and their absorbance read out at 590 nm using an Epoch Gene5 spectrophotometer.
as §1

[2] = tested on: T. cruzi Tulahuen strain expressing β-galactosidase; assay: anti-T. cruzi dose-response growth inhibition assay (Vero cells plus trypomastigotes, CPRG readout); conditions: anti-T. cruzi IC50 of non-progressed compounds, read-out: Dose-response assay IC50
Method: as §2
T. cruzi growth was primarily analyzed under three different concentrations ([…]) of the 81 compounds. Conditions were tested in triplicate for every concentration. Z-values varied between 0.81 and 0.92 in the different plates analyzed. Selected compounds (34.6% potential hit rate) were further analyzed via standard growth inhibition assays. The Z-values of dose–response assays correlated with those previously reported. For both assays, Vero cells and trypomastigotes from the Tulahuen T. cruzi strain expressing β-galactosidase were harvested, centrifuged, and resuspended in DMEM without phenol red supplemented with 1% PSG, 2% FBS, 1 mM sodium pyruvate, and 25 mM HEPES. Vero cells and trypomastigotes were counted, diluted at a concentration of 1 × 10^6 cells/mL each, and mixed 1:1 (v/v). Then, 100 μL of that mixture was added per well to the plates already containing the compounds. Each well contained 50,000 host cells and 50,000 parasites, i.e., multiplicity of infection (MOI) = 1. BNZ was used as control of maximal drug growth inhibition in each round, whereas each plate contained its own negative control (maximum parasite growth; Vero cells plus parasites without drugs) and positive control (minimum parasite growth; trypomastigote forms alone marking an enzymatic zero time or baseline galactosidase activity). After four days at 37 °C, 50 µL of a PBS solution containing 0.25% NP40 and 500 µM chlorophenol red-β-D-galactopyranoside (CPRG) substrate were added per well [32]. Plates were incubated at 37 °C for 4 h, and their absorbance read out at 590 nm using an Epoch Gene5 spectrophotometer.
as §1

[3] = compound at 1 µM, average of at least three independent experiments
[4] = compound at 10 µM, average of at least three independent experiments

Row | SMILES | activity at 1 µM (P. falciparum 3D7; Plasmodium falciparum, 3D7, compound at 1 µM, read-out: Primary screening, parasite growth relative to the negative control) [%] | activity at 10 µM (P. falciparum 3D7; Plasmodium falciparum, 3D7, compound at 10 µM, read-out: Primary screening, parasite growth relative to the negative control) [%] | activity at 100 µM (P. falciparum 3D7; Plasmodium falciparum, 3D7, compound at 100 µM, read-out: Primary screening, parasite growth relative to the negative control) [%] | activity at 100 µM ([1]; Trypanosoma cruzi, TULAHUEN, read-out: Primary screening, growth inhibition values at 100 µM) [%] | activity at 1 µM ([1]; Trypanosoma cruzi, TULAHUEN, compound at 1 µM, average of at least three independent experiments, read-out: Primary screening, growth inhibition values at 1 µM) [%] | activity at 10 µM ([1]; Trypanosoma cruzi, TULAHUEN, compound at 10 µM, average of at least three independent experiments, read-out: Primary screening, growth inhibition values at 10 µM) [%] | pIC50 ([2]; Trypanosoma cruzi, TULAHUEN, Vero) | Primary screening, parasite growth relative to the negative control (P. falciparum 3D7; compound at 1 µM) [%] | Primary screening, parasite growth relative to the negative control (P. falciparum 3D7; compound at 10 µM) [%] | Primary screening, parasite growth relative to the negative control (P. falciparum 3D7; compound at 100 µM) [%] | Primary screening, growth inhibition values at 1 µM [1, 3] | Primary screening, growth inhibition values at 10 µM [1, 4] | pIC50 [2]
1 | CC(C)(C)Nc1ncnc2c1nc(-c1ccccc1)n2C(C)(C)C [Compound 1B] | 112 | 108 | 69.5 | 12.7 | 96.3 | 93 | 4.17 | – | – | – | – | – | –
2 | Cc1nc2c(NC(C)(C)C)ncnc2n1C(C)(C)C [Compound 2A] | – | – | – | – | – | – | – | 110.87 | 112.26 | 30.73 | 96.86 | 88.71 | –
3 | CC(C)(C)Nc1ncnc2c1ncn2C(C)(C)C [Compound 3F] | – | – | – | – | – | – | – | 110.21 | 108.90 | 35.36 | – | – | 4.19
4 | Cc1nc2c(OCc3ccccc3)ncnc2n1N(C)C [Compound 4M] | – | – | – | – | – | – | – | 100.27 | 101.23 | 88.99 | 88.68 | 89.08 | –
5 | CN(C)n1c(-c2ccccc2)nc2c(OCc3ccccc3)ncnc21 [Compound 4] | – | – | – | – | – | – | – | 97.86 | 97.42 | 96.42 | 94.81 | 89.88 | –
6 | c1ccc(COc2ncnc3c2ncn3N2CCCCC2)cc1 [Compound 13H] | – | – | – | – | – | – | – | 100.86 | 97.31 | 67.76 | 92.39 | 93.99 | –
7 | Cc1nc2c(OCc3ccccc3)ncnc2n1N1CCCCC1 [Compound 13M] | – | – | – | – | – | – | – | 101.41 | 100.79 | 87.03 | 91.73 | 92.01 | –
8 | c1ccc(COc2ncnc3c2nc(-c2ccccc2)n3N2CCOCC2)cc1 [Compound 21] | – | – | – | – | – | – | – | 96.68 | 87.35 | 81.22 | – | – | 4.46
9 | Cc1nc2c(OCc3ccccc3)ncnc2n1N1CCOCC1 [Compound 22] | – | – | – | – | – | – | – | 97.98 | 78.53 | 73.65 | – | – | –
